Data set [1] deals with Phosphatidylinositol 4,5-bisphosphate 3-kinase catalytic subunit alpha isoform (Homo sapiens, UniProt P42336). In words: Inhibition of PI3Kalpha (unknown origin) using PIP2/PS as substrate preincubated for 15 mins before substrate addition by luciferase-based luminescence assay.
For data set [2], the target named is Serine/threonine-protein kinase mTOR (Homo sapiens, UniProt P42345). In words: Inhibition of mTOR (unknown origin) assessed as inhibition of 4EBP-1 phosphorylation preincubated for 15 mins before substrate addition by TR-FRET assay. A general note: TR-FRET usually uses a lanthanide donor and a delayed reading to cut background.
Data set [3] can be described thus: Apparent permeability from basolateral to apical side of human Caco2 cells at 10 uM after 90 mins by LC/MS/MS analysis. The class given is ADME, cell-based. Particulars: Caco-2. (In general: Passage across Caco-2 layers is used to estimate intestinal permeability.)
A short description of data set [4]: Antiproliferative activity against human U87MG cells after 4 days by CellTiter-Glo assay. Particulars: U-87 MG, 96 h.
The nature of data set [5]: Apparent permeability from apical to basolateral side of human Caco2 cells at 10 uM after 90 mins by LC/MS/MS analysis. Particulars: Caco-2. The data set is classed as ADME, cell-based.
A short description of data set [6]: Antiproliferative activity against human SKOV3 cells after 3 days by CellTiter-Glo assay. Particulars: SK-OV-3, 72 h. Background: In ATP-based viability assays light output follows the ATP content of the culture.
The nature of data set [7]: Efflux ratio of apparent permeability from basolateral to apical side to apical to basolateral of human Caco2 cells. The data set is classed as ADME, cell-based. The settings on record: Caco-2.

Where only a bound is given, the exact number is not on record here.

Phosphatidylinositol 4,5-bisphosphate 3-kinase catalytic subunit alpha isoform, sequence (P42336 whole entry, canonical isoform): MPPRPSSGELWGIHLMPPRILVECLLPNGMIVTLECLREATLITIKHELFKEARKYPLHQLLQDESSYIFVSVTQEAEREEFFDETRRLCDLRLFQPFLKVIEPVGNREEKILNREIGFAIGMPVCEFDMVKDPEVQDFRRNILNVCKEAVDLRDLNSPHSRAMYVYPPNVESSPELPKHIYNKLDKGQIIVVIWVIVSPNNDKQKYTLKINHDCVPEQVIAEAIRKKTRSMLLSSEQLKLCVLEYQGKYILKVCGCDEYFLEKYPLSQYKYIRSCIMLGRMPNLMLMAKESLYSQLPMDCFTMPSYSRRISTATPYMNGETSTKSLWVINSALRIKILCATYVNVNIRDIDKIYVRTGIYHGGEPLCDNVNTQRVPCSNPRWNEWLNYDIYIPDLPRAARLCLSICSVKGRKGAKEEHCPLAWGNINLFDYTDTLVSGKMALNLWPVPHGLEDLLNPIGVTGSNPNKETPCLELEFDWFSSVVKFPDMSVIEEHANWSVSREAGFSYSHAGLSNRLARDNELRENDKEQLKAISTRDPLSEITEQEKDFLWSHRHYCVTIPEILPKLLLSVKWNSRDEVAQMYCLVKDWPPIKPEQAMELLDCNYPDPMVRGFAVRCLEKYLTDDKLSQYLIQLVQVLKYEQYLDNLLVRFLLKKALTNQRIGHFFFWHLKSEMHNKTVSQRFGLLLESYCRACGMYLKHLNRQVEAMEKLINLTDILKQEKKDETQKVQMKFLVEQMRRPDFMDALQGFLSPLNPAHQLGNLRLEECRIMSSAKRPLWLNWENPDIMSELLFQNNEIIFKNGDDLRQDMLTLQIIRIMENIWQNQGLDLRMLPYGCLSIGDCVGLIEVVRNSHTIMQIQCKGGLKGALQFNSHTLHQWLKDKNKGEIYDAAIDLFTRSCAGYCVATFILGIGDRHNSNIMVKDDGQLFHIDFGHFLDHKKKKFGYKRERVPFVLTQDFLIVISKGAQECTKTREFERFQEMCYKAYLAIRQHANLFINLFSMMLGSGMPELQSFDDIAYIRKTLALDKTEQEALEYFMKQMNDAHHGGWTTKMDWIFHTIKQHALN

As a reminder, the IC50 is the point on the concentration scale where inhibition reaches its midpoint. `COc1ncc(-c2cnc3nc(N)nc(C)c3c2)cc1NS(=O)(=O)C1CC1`: the IC50 in data set [1] is 55.6 nM.

Take `COc1ncc(-c2cnc3nc(N)nc(C)c3c2)cc1NS(=O)(=O)c1ccc(Cl)s1`: the IC50 came out at 37.6 nM in data set [2] and 6.87 nM in data set [1].

Take `COc1ncc(-c2cnc3nc(N)nc(C)c3c2)cc1NS(=O)(=O)c1cccs1`: the concentration for half-maximal inhibition (IC50) in data set [2] was determined as 245 nM; in data set [1], 23.3 nM.

Regarding `COc1ccc(S(=O)(=O)Nc2cc(-c3cnc4nc(N)nc(C)c4c3)cnc2OC)cc1`, the half-maximal inhibitory concentration (IC50) in data set [2] was 180 nM; in data set [1], 67 nM.

On to `COc1ncc(-c2cnc3nc(N)nc(C)c3c2)cc1NC(=O)Nc1ccc(F)cc1F`, for which the 50% inhibitory concentration (IC50) in data set [1] is above 1000 nM.

Usually Papp B→A stands for how fast a substance crosses the layer from the basolateral side. What is called Papp A→B is the apparent permeability from the apical to the basolateral side of a cell layer. Regarding `COc1ccc(-c2cc3c(C)nc(N)nc3n([C@H]3CC[C@H](OCCO)CC3)c2=O)cn1` [PF-04691502], the Papp B→A at 1.5 h, 10 µM in data set [3] came out at 32.5 ×10⁻⁶ cm/s. Further, the IC50 in data set [4] amounted to 520 nM; in data set [6], 290 nM. Moreover, the apparent permeability from apical to basolateral (Papp A→B) at 1.5 h, 10 µM in data set [5] stood at 25.7 ×10⁻⁶ cm/s.

Take `COc1ncc(-c2cnc3nc(N)nc(C)c3c2)cc1NS(=O)(=O)c1ccccc1`: the IC50 in data set [2] turned out to be 79.2 nM; in data set [1], 63.1 nM.

On to `Cc1nc(N)nc2ncc(-c3cnc4[nH]cc(NS(=O)(=O)c5ccc(F)cc5F)c4c3)cc12`, for which, in data set [1], the IC50 was 76.5 nM.

Take `Cc1nc(N)nc2ncc(-c3cnc4[nH]ccc4c3)cc12`: the IC50 in data set [1] stood at 38 nM.

Turning to `COc1ncc(-c2cnc3nc(N)nc(C)c3c2)cn1`, inhibition in data set [1] was half-maximal at 218 nM (IC50).

`COc1ncc(-c2cnc3nc(N)nc(C)c3c2)cc1N` registered an IC50 in data set [1] of 632 nM.

On to `COc1ncc(-c2cnc3nc(N)nc(C)c3c2)cc1NS(=O)(=O)c1cccnc1`, for which the IC50 was 111 nM in data set [2] and 7.82 nM in data set [1].

For `COc1ccc(-c2cnc3nc(N)nc(C)c3c2)cn1`, in data set [1], the IC50 was 414 nM.

One may read the efflux ratio as the permeability from basolateral to apical divided by that in the opposite direction, in the common usage. On to `COc1ncc(-c2cnc3nc(N)nc(C)c3c2)cc1NS(=O)(=O)c1ccc(C#N)cc1`, for which the IC50 in data set [2] came to 45.8 nM; in data set [4] it was 2440 nM; in data set [1] it was 2.82 nM; in data set [6] it was 9150 nM. The efflux ratio in data set [7] amounted to 13.5. Further, in data set [3], the Papp B→A at 1.5 h, 10 µM worked out at 14 ×10⁻⁶ cm/s. Also, the Papp A→B at 1.5 h, 10 µM in data set [5] turned out to be 1.04 ×10⁻⁶ cm/s.

Turning to `COc1ncc(-c2cnc3nc(N)nc(C)c3c2)cc1NC(=O)C(F)(F)F`, the IC50 in data set [1] was above 1000 nM.

Turning to `COc1ncc(-c2cnc3nc(N)nc(C)c3c2)cc1NS(=O)(=O)c1ccc(C(F)(F)F)cc1`, the figures for the IC50 in data set [2] and in data set [1] were 67 nM and 8.41 nM, respectively.

With `CCCCS(=O)(=O)Nc1cc(-c2cnc3nc(N)nc(C)c3c2)cnc1OC`, the IC50 in data set [1] is 47.5 nM.

Take `COc1ncc(-c2cnc3nc(N)nc(C)c3c2)cc1F`: the concentration for half-maximal inhibition (IC50) in data set [1] came to 117 nM.

Turning to `Cc1nc(N)nc2ncc(-c3cnc4[nH]nc(NS(=O)(=O)c5ccc(F)cc5F)c4c3)cc12`, the midpoint of inhibition in data set [1], the IC50, lay at 82.4 nM.

On to `COc1ncc(-c2cnc3nc(N)nc(C)c3c2)cc1NC(=O)c1ccc(F)cc1F`, for which the IC50 in data set [1] is above 1000 nM.

`COc1ncc(-c2cnc3nc(N)nc(C)c3c2)cc1NS(C)(=O)=O`: half-maximal inhibition in data set [1] (IC50) was put at 145 nM.
